Activity calls are given as the source filed them. The rule behind the calls is not given here.
Assays:
[1] = Binding affinity to human StrepTag-Avi-CRBN-His6-Spy-fused DDB1deltaB mutant complex expressed in baculovirus infected high-five insect cells assessed as labeling of His353 residue at 15 uM measured after 24 hrs by LC-MS analysis relative to control; details: Insect cell
[2] = Stability of the compound in human plasma assessed as half life at 1 uM by LC-MS/MS analysis; type: ADME, cell-free
[3] = Drug metabolism in human plasma assessed as sulfonyl imidazole motif hydrolysis at 10 uM measured after 120 mins by LC-UV-MS analysis; type: ADME, cell-free; details: 2 h
[4] = Cytotoxicity against human MOLT-4 cells assessed as reduction in cell viability incubated for 24 hrs by CellTiter Glo Luminescent cell viability assay; type: toxicity, cell-based
[5] = Stability of the compound in human liver microsomes assessed as half life at 1 uM by LC-MS/MS analysis; type: ADME, Microsome
[6] = Drug metabolism in human plasma assessed as glutarimide-hydrolysis at 10 uM measured after 120 mins by LC-UV-MS analysis; type: ADME, cell-free; details: 2 h
[7] = Stability of the compound in human hepatocytes assessed as half life at […] by LC-MS/MS analysis; type: ADME, cell-based, Hepatocyte
MOLT-4 = test: Induction of protein degradation in human MOLT-4 cells at 1 uM measured after 5 hrs by LC-MS analysis; type: functional, cell-based
Protein cereblon = Protein cereblon (Homo sapiens, UniProt Q96SW2); test: Displacement of BODIPY-lenalidomide from human N-terminal NanoLuc-fused CRBN expressed in HEK293T cells incubated for 2 hrs by NanoBRET assay; type: cell-based
Protein cereblon, sequence (Q96SW2 whole entry, the tested form may be a part): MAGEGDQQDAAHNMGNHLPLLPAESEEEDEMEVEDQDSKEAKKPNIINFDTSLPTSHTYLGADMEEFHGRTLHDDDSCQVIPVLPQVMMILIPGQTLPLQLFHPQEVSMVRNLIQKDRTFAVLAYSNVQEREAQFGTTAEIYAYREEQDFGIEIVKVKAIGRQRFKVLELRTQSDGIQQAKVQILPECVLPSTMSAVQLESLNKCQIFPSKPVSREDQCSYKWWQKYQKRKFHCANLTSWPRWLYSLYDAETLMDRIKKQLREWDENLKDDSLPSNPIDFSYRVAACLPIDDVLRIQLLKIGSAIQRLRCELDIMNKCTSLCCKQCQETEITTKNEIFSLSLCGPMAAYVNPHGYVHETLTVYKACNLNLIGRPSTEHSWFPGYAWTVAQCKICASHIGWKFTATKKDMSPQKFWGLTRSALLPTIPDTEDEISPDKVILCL

| Compound | Activity [1] | half-life at 1 µM [2] | also measured |
| --- | --- | --- | --- |
| O=C1CCC(N2Cc3ccc(S(=O)(=O)n4cc(F)cn4)cc3C2=O)C(=O)N1 (centres undefined) | 67% | 1.53 h |  |
| O=C1CCC(N2Cc3ccc(S(=O)(=O)n4cc(C(F)(F)F)cn4)cc3C2=O)C(=O)N1 (centres undefined) | 90% | 0.167 h |  |
| O=C1CCC(N2Cc3ccccc3C2=O)C(=O)N1 (centres undefined) |  |  | Drug metabolism [3]: Metabolite_Detected; CC50 at 24 h [4]: > 10 µM; half-life at 1 µM [5]: > 2.42 h; Drug metabolism [6]: Metabolite_Detected; half-life [7]: > 3.62 h |
| O=C1CCC(N2Cc3ccc(S(=O)(=O)n4ccnc4)cc3C2=O)C(=O)N1 (centres undefined) | > 95% | 1.57 h | CC50 at 24 h [4]: > 10 µM; half-life at 1 µM [5]: > 2.42 h; half-life [7]: > 3.62 h; Activity (MOLT-4): inactive |
| Nc1ccn(S(=O)(=O)c2ccc3c(c2)C(=O)N(C2CCC(=O)NC2=O)C3)c(=O)n1 (centres undefined) | 55% | > 4.82 h |  |
| O=C1CCC(N2Cc3ccc(S(=O)(=O)n4ccc(=O)[nH]c4=O)cc3C2=O)C(=O)N1 (centres undefined) | 90% | 2.72 h |  |
| O=C1CCC(N2Cc3ccc(S(=O)(=O)n4cnc(C(F)(F)F)c4)cc3C2=O)C(=O)N1 (centres undefined) | 75% | 0.108 h |  |
| O=C1CCC(N2Cc3ccc(S(=O)(=O)n4nccn4)cc3C2=O)C(=O)N1 (centres undefined) | 90% |  |  |
| O=C1CCC(N2Cc3ccc(S(=O)(=O)F)cc3C2=O)C(=O)N1 (centres undefined) | > 95% |  | IC50 (Protein cereblon): 0.0011 µM |
| O=C1CCC(N2Cc3ccc(S(=O)(=O)n4cncn4)cc3C2=O)C(=O)N1 (centres undefined) | 90% | < 0.0167 h |  |
| O=C1CCC(N2Cc3ccc(S(=O)(=O)n4cnc(F)c4)cc3C2=O)C(=O)N1 (centres undefined) | 90% | 0.317 h |  |
| Cc1cn(S(=O)(=O)c2ccc3c(c2)C(=O)N(C2CCC(=O)NC2=O)C3)cn1 (centres undefined) | < 5% | 4.78 h |  |
| Cc1cnn(S(=O)(=O)c2ccc3c(c2)C(=O)N(C2CCC(=O)NC2=O)C3)c1 (centres undefined) | < 5% | > 4.82 h |  |
| O=C1CCC(N2Cc3ccc(S(=O)(=O)n4ccc(F)n4)cc3C2=O)C(=O)N1 (centres undefined) | 37% | 1.92 h |  |
| O=C1CCC(N2Cc3ccc(OS(=O)(=O)F)cc3C2=O)C(=O)N1 (centres undefined) | 75% |  |  |
| O=C1CCC(N2Cc3ccc(S(=O)(=O)n4ccc(C(F)(F)F)n4)cc3C2=O)C(=O)N1 (centres undefined) | 90% | 0.233 h |  |
| Cc1cn(S(=O)(=O)c2ccc3c(c2)C(=O)N(C2CCC(=O)NC2=O)C3)c(=O)[nH]c1=O (centres undefined) | 90% | 3.98 h |  |

From ChEMBL document CHEMBL5370678, “Covalent Stapling of the Cereblon Sensor Loop Histidine Using Sulfur-Heterocycle Exchange” (ACS Med Chem Lett, 2023)
